# Experimental data taken from BindingDB's records for doi:10.1016/j.bmcl.2009.07.052 (Incyte, 2009).
# Molecular target: Receptor tyrosine-protein kinase erbB-2 (Homo sapiens, UniProt P04626)
# Test: Inhibition of HER-2
# Sequence of Receptor tyrosine-protein kinase erbB-2 (P04626 whole entry): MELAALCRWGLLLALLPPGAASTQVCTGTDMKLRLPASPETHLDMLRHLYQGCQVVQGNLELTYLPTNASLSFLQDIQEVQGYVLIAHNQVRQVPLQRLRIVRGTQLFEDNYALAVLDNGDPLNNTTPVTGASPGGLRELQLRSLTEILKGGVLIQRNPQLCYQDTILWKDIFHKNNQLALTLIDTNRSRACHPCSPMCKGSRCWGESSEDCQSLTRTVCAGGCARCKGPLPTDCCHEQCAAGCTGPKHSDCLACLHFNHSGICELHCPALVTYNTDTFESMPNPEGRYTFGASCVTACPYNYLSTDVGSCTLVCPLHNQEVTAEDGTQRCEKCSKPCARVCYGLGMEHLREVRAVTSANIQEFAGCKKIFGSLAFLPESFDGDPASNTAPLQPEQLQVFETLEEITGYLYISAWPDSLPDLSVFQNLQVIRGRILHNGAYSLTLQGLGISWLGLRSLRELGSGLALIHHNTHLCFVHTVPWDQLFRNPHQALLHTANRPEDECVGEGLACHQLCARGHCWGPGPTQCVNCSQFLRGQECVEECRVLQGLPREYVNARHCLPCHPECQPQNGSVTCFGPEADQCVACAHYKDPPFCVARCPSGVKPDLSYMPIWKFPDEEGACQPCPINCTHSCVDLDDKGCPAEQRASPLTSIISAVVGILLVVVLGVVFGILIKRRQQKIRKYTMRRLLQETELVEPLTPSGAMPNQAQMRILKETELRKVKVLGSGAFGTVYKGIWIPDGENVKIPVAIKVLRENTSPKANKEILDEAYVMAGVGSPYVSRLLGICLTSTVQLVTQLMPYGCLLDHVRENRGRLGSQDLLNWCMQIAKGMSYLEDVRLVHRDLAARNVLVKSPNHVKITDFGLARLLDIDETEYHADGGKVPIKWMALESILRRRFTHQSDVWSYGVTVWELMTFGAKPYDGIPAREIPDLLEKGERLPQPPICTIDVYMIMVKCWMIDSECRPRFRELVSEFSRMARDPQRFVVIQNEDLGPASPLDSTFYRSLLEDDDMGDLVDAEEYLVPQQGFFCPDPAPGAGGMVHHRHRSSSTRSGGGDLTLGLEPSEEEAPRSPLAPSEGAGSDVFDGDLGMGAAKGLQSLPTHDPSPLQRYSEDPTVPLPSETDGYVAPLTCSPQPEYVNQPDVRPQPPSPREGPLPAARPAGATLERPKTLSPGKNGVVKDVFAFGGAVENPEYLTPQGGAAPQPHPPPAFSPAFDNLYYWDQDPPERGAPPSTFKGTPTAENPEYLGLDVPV
row,Compound,IC50
1,"CN1C[C@@H](OC(=O)N2CCCCCCC2)C[C@H](C(=O)NO)[C@H]1C(=O)N1CCN(c2ccccc2)CC1 [(3S,5S,6S)-5-(hydroxycarbamoyl)-1-methyl-6-(4-phenylpiperazine-1-carbonyl)piperidin-3-yl azocane-1-carboxylate]",27.5 nM
2,"CN(C(=O)c1ccccc1)C1CN[C@H](C(=O)N2CC=C(c3ccccc3)CC2)[C@@H](C(=O)NO)C1 (stereo partly drawn) [(2S,3S)-N-hydroxy-5-(N-methylbenzamido)-2-(4-phenyl-1,2,3,6-tetrahydropyridine-1-carbonyl)piperidine-3-carboxamide]",10 nM
3,"CC(C)C(=O)N(C)C1CN[C@H](C(=O)N2CC=C(c3ccccc3)CC2)[C@@H](C(=O)NO)C1 (stereo partly drawn) [(2S,3S)-N-hydroxy-5-(N-methylisobutyramido)-2-(4-phenyl-1,2,3,6-tetrahydropyridine-1-carbonyl)piperidine-3-carboxamide]",15.5 nM
4,"CN1C[C@@H](OC(=O)N2CCC(F)(F)C2)C[C@H](C(=O)NO)[C@H]1C(=O)N1CCN(c2ccccc2)CC1 [(3S,5S,6S)-5-(hydroxycarbamoyl)-1-methyl-6-(4-phenylpiperazine-1-carbonyl)piperidin-3-yl 3,3-difluoropyrrolidine-1-carboxylate]",50.5 nM
5,"O=C(NO)[C@H]1C[C@@H](OC(=O)N2CCCC2)CN[C@@H]1C(=O)N1CC=C(c2ccccc2)CC1 [(3R,5S,6S)-5-(hydroxycarbamoyl)-6-(4-phenyl-1,2,3,6-tetrahydropyridine-1-carbonyl)piperidin-3-yl pyrrolidine-1-carboxylate]",30 nM
6,"CN1C[C@@H](OC(=O)N2CC=CC2)C[C@H](C(=O)NO)[C@H]1C(=O)N1CCN(c2ccccc2)CC1 [(3S,5S,6S)-5-(hydroxycarbamoyl)-1-methyl-6-(4-phenylpiperazine-1-carbonyl)piperidin-3-yl 2,5-dihydro-1H-pyrrole-1-carboxylate]",3.8 nM
7,"CN1C[C@@H](OC(=O)N2CCCCCC2)C[C@H](C(=O)NO)[C@H]1C(=O)N1CCN(c2ccccc2)CC1 [(3S,5S,6S)-5-(hydroxycarbamoyl)-1-methyl-6-(4-phenylpiperazine-1-carbonyl)piperidin-3-yl azepane-1-carboxylate]",4.4 nM
8,O=C(NO)[C@H]1CC(OC(=O)N2CCCC2)CN[C@@H]1C(=O)N1CC[C@H](c2ccccc2)C1 (stereo partly drawn),28 nM
9,"CC(C)C(=O)N(C)C1CN[C@H](C(=O)N2CC[C@H](c3ccccc3)C2)[C@@H](C(=O)NO)C1 (stereo partly drawn) [(2S,3S)-N-hydroxy-5-(N-methylisobutyramido)-2-((R)-3-phenylpyrrolidine-1-carbonyl)piperidine-3-carboxamide]",52 nM
10,"COC(=O)N1C[C@@H](OC(=O)N2CCCC2)C[C@H](C(=O)NO)[C@H]1C(=O)N1CCN(c2ccccc2)CC1 [(2S,3S,5S)-methyl 3-(hydroxycarbamoyl)-2-(4-phenylpiperazine-1-carbonyl)-5-(pyrrolidine-1-carbonyloxy)piperidine-1-carboxylate]",8.1 nM
11,"CN1C[C@@H](OC(=O)N2CCCCC2)C[C@H](C(=O)NO)[C@H]1C(=O)N1CCN(c2ccccc2)CC1 [(3S,5S,6S)-5-(hydroxycarbamoyl)-1-methyl-6-(4-phenylpiperazine-1-carbonyl)piperidin-3-yl piperidine-1-carboxylate]",7.3 nM
12,"O=C(NO)[C@H]1CC(CC(=O)N2CCCC2)CN[C@@H]1C(=O)N1CC[C@H](c2ccccc2)C1 (stereo partly drawn) [(2S,3S)-N-hydroxy-5-(2-oxo-2-(pyrrolidin-1-yl)ethyl)-2-((R)-3-phenylpyrrolidine-1-carbonyl)piperidine-3-carboxamide]",5.6 nM
13,"O=C(NO)[C@H]1CC(CC(=O)N2CCCC2)CN[C@@H]1C(=O)N1CC=C(c2ccccc2)CC1 (stereo partly drawn) [(2S,3S)-N-hydroxy-5-(2-oxo-2-(pyrrolidin-1-yl)ethyl)-2-(4-phenyl-1,2,3,6-tetrahydropyridine-1-carbonyl)piperidine-3-carboxamide]",4.3 nM
14,"CN(C(=O)c1ccccc1)C1CN[C@H](C(=O)N2CC[C@H](c3ccccc3)C2)[C@@H](C(=O)NO)C1 (stereo partly drawn) [(2S,3S)-N-hydroxy-5-(N-methylbenzamido)-2-((R)-3-phenylpyrrolidine-1-carbonyl)piperidine-3-carboxamide]",29 nM
15,"CN(C)C(=O)O[C@H]1C[C@H](C(=O)NO)[C@@H](C(=O)N2CCN(c3ccccc3)CC2)N(C)C1 [(3S,5S,6S)-5-(hydroxycarbamoyl)-1-methyl-6-(4-phenylpiperazine-1-carbonyl)piperidin-3-yl dimethylcarbamate]",31 nM
16,"CN1C[C@@H](OC(=O)N2CCC2)C[C@H](C(=O)NO)[C@H]1C(=O)N1CCN(c2ccccc2)CC1 [(3S,5S,6S)-5-(hydroxycarbamoyl)-1-methyl-6-(4-phenylpiperazine-1-carbonyl)piperidin-3-yl azetidine-1-carboxylate]",44.5 nM

# The remaining lines, values ahead:
row,IC50,Compound
1,3.8 nM,"O=C(NO)[C@H]1C[C@H](OC(=O)N2CCCC2)CN[C@@H]1C(=O)N1CCN(c2ccccc2)CC1 [(5S,6S)-5-(hydroxycarbamoyl)-6-(4-phenylpiperazine-1-carbonyl)piperidin-3-yl pyrrolidine-1-carboxylate]"
2,42 nM,"O=C(NO)[C@H]1C[C@H](OC(=O)N2CCCC2)CN[C@@H]1C(=O)N1CCC(c2ccccc2)CC1 [(5S,6S)-5-(hydroxycarbamoyl)-6-(4-phenylpiperidine-1-carbonyl)piperidin-3-yl pyrrolidine-1-carboxylate]"
3,5.6 nM,"O=C(NO)[C@H]1CC(OC(=O)N2CCCC2)CN[C@@H]1C(=O)N1CC=C(c2ccccc2)CC1 (stereo partly drawn) [(5S,6S)-5-(hydroxycarbamoyl)-6-(4-phenyl-1,2,3,6-tetrahydropyridine-1-carbonyl)piperidin-3-yl pyrrolidine-1-carboxylate]"
4,70 nM,"O=C(NO)[C@H]1CC(OC(=O)N2CCCC2)CN[C@@H]1C(=O)N1Cc2ccccc2C1 (stereo partly drawn) [(5S,6S)-5-(hydroxycarbamoyl)-6-(isoindoline-2-carbonyl)piperidin-3-yl pyrrolidine-1-carboxylate]"
5,11 nM,"O=C(NO)[C@H]1C[C@H](OC(=O)N2CCCC2)CN[C@@H]1C(=O)N1CC=C(c2ccccc2)C1 [(5S,6S)-5-(hydroxycarbamoyl)-6-(3-phenyl-2,5-dihydro-1H-pyrrole-1-carbonyl)piperidin-3-yl pyrrolidine-1-carboxylate]"
6,8.5 nM,"CC(C)OC(=O)N(C)C1CN[C@H](C(=O)N2CC=C(c3ccccc3)CC2)[C@@H](C(=O)NO)C1 (stereo partly drawn) [isopropyl-(5S,6S)-5-(hydroxycarbamoyl)-6-(4-phenyl-1,2,3,6-tetrahydropyridine-1-carbonyl)piperidin-3-yl(methyl)carbamate]"
7,11.5 nM,"CN1C[C@@H](OC(=O)N2CCCC2)C[C@H](C(=O)NO)[C@H]1C(=O)N1CCN(c2ccccc2)CC1 [(3S,5S,6S)-5-(hydroxycarbamoyl)-1-methyl-6-(4-phenylpiperazine-1-carbonyl)piperidin-3-yl pyrrolidine-1-carboxylate]"
